Patent US20070249670A1, “Glycogen Phosphorylase Inhibitor Compounds and Pharmaceutical Compositions Thereof” (SMITHKLINE BEECHAM CORPORATION, priority 2004, published 2007)

The compounds below were run against T1, human liver glycogen phosphorylase a (HLGPa) (Homo sapiens, UniProt P06737) (assay: Human liver glycogen phosphorylase a enzymatic activity assay (coupled, fluorescent resorufin readout, with and without 10 mM glucose)). Conditions: human liver glycogen phosphorylase a enzymatic activity assay.
T1 construct: creating a full-length cDNA fused at the 5′ end to codons for methionine-glycine-alanine-histidine; 6xHis tag (leader Met-Gly-Ala-His6-Gly-Gly) (N); made in house; host or cells: E. coli (bacterial expression plasmid pTXK1007LTev)
T1 sequence (P06737 2-847 limits assumed): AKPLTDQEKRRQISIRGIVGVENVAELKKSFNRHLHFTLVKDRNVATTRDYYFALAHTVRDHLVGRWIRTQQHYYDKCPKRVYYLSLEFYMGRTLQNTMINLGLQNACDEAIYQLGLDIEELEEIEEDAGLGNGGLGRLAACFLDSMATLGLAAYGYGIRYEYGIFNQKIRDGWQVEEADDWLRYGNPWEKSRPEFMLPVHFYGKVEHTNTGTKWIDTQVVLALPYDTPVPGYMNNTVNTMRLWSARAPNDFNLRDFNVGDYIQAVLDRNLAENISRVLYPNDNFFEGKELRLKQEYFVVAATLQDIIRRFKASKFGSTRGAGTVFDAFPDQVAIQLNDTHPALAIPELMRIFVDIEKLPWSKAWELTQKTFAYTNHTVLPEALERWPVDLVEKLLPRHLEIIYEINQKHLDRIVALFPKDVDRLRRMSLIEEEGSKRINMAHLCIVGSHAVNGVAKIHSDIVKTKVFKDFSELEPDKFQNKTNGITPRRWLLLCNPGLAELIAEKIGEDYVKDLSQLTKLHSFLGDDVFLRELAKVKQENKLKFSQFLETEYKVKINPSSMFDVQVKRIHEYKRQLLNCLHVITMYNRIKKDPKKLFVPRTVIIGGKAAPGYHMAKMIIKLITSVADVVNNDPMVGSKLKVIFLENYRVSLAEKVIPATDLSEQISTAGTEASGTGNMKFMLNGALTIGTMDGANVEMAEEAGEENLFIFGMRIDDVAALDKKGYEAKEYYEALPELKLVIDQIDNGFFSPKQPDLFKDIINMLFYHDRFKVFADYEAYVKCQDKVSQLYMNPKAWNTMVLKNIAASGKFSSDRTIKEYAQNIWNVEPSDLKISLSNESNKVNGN
Format: biochemical
`O=C(Nc1cc(-c2ccc(OC(F)(F)F)cc2)sc1C(=O)N[C@H](C(=O)O)C1CCCCC1)Nc1c(Cl)cccc1Cl` [Example 435, (2S)-cyclohexyl{[(3-({[(2,6-dichlorophenyl)amino]carbonyl}amino)-5-{4-[(trifluoromethyl)oxy]phenyl}-2-thienyl)carbonyl]amino}ethanoic acid] showed an IC50 of 1.63 µM.
In the case of `Cc1cc(C)c(NC(=O)Nc2cc(-c3ccc(OC(F)(F)F)cc3)sc2C(=O)O)c(C)c1` [Example 436, 5-{4-[(trifluoromethyl)oxy]phenyl}-3-({[(2,4,6-trimethylphenyl)amino]carbonyl}amino)-2-thiophenecarboxylic acid], the IC50 is reported as 1.57 µM.
With `Cc1cc(C)c(NC(=O)Nc2cc(-c3ccc(OC(F)(F)F)cc3)sc2C(=O)N[C@H](C(=O)O)C2CCCCC2)c(C)c1` [Example 437, (2S)-cyclohexyl({[5-{4-[(trifluoromethyl)oxy]phenyl}-3-({[(2,4,6-trimethylphenyl)amino]carbonyl}amino)-2-thienyl]carbonyl}amino)ethanoic acid] the IC50 was 0.22 µM.
`COc1ccc(-c2cc(NC(=O)Nc3c(C)cc(C)cc3C)c(C(=O)O)s2)cc1` [Example 438, 5-[4-(methyloxy)phenyl]-3-({[(2,4,6-trimethylphenyl)amino]carbonyl}amino)-2-thiophenecarboxylic acid] was tested, and the IC50 was 0.33 µM.
With `COc1ccc(-c2cc(NC(=O)Nc3c(C)cc(C)cc3C)c(C(=O)N[C@H](C(=O)O)C3CCCCC3)s2)cc1` [Example 439, (2S)-cyclohexyl({[5-[4-(methyloxy)phenyl]-3-({[(2,4,6-trimethylphenyl)amino]carbonyl}amino)-2-thienyl]carbonyl}amino)ethanoic acid] the IC50 was 0.012 µM.
Compound `COc1ccc(-c2cc(NC(=O)Nc3c(C)cc(C)cc3C)c(C(=O)N[C@H](C(=O)O)C(C)C)s2)cc1` [Example 440] has an IC50 of 0.1 µM.
Work on `COc1ccc(-c2cc(NC(=O)Nc3c(C)cc(C)cc3C)c(C(=O)N[C@@H](C(=O)O)C(C)C)s2)cc1` [Example 441, N-{[5-[4-(methyloxy)phenyl]-3-({[(2,4,6-trimethylphenyl)amino]carbonyl}amino)-2-thienyl]carbonyl}-D-valine] yielded an IC50 of 2.11 µM.
With `CC[C@H](C)[C@H](NC(=O)c1sc(-c2ccc(OC)cc2)cc1NC(=O)Nc1c(C)cc(C)cc1C)C(=O)O` [Example 442, N-{[5-[4-(methyloxy)phenyl]-3-({[(2,4,6-trimethylphenyl)amino]carbonyl}amino)-2-thienyl]carbonyl}-L-isoleucine] the IC50 was 0.051 µM.
Compound `CCCC[C@H](NC(=O)c1sc(-c2ccc(OC)cc2)cc1NC(=O)Nc1c(C)cc(C)cc1C)C(=O)O` [Example 443, N-{[5-[4-(methyloxy)phenyl]-3-({[(2,4,6-trimethylphenyl)amino]carbonyl}amino)-2-thienyl]carbonyl}-L-norleucine] has an IC50 of 0.043 µM.
`COc1ccc(-c2cc(NC(=O)Nc3c(C)cc(C)cc3C)c(C(=O)N[C@@H](CC3CCCCC3)C(=O)O)s2)cc1` [Example 444, 3-cyclohexyl-N-{[5-[4-(methyloxy)phenyl]-3-({[(2,4,6-trimethylphenyl)amino]carbonyl}amino)-2-thienyl]carbonyl}-L-alanine] showed an IC50 of 0.11 µM.
In the case of `COc1ccc(-c2cc(NC(=O)Nc3c(C)cc(C)cc3C)c(C(=O)N[C@@H](COC(C)(C)C)C(=O)O)s2)cc1` [Example 445, O-(1,1-dimethylethyl)-N-{[5-[4-(methyloxy)phenyl]-3-({[(2,4,6-trimethylphenyl)amino]carbonyl}amino)-2-thienyl]carbonyl}-L-serine], the IC50 is reported as 0.082 µM.
`COc1ccc(-c2cc(NC(=O)Nc3c(C)cc(C)cc3C)c(C(=O)N[C@H](C(=O)O)[C@@H](C)OC(C)(C)C)s2)cc1` [Example 446, O-(1,1-dimethylethyl)-N-{[5-[4-(methyloxy)phenyl]-3-({[(2,4,6-trimethylphenyl)amino]carbonyl}amino)-2-thienyl]carbonyl}-L-threonine] gave an IC50 of 0.031 µM.
With `COc1ccc(-c2cc(NC(=O)Nc3c(C)cc(C)cc3C)c(C(=O)N3CCC[C@H]3C(=O)O)s2)cc1` [Example 447, 1-{[5-[4-(methyloxy)phenyl]-3-({[(2,4,6-trimethylphenyl)amino]carbonyl}amino)-2-thienyl]carbonyl}-L-proline] the IC50 was 0.026 µM.
`COc1ccc(-c2cc(NC(=O)Nc3c(C)cc(C)cc3C)c(C(=O)N3CCCC[C@H]3C(=O)O)s2)cc1` [Example 448, (2S)-1-{[5-[4-(methyloxy)phenyl]-3-({[(2,4,6-trimethylphenyl)amino]carbonyl}amino)-2-thienyl]carbonyl}-2-piperidinecarboxylic acid] showed an IC50 of 0.37 µM.
`COc1ccc(-c2cc(NC(=O)Nc3c(C)cc(C)cc3C)c(C(=O)NC3(C(=O)O)CC3)s2)cc1` [Example 449, 1-({[5-[4-(methyloxy)phenyl]-3-({[(2,4,6-trimethylphenyl)amino]carbonyl}amino)-2-thienyl]carbonyl}amino)cyclopropanecarboxylic acid] gave an IC50 of 0.34 µM.
For `COc1ccc(-c2cc(NC(=O)Nc3c(C)cc(C)cc3C)c(C(=O)NC3(C(=O)O)CCC3)s2)cc1` [Example 450, 1-({[5-[4-(methyloxy)phenyl]-3-({[(2,4,6-trimethylphenyl)amino]carbonyl}amino)-2-thienyl]carbonyl}amino)cyclobutanecarboxylic acid], the IC50 was 0.25 µM.
`COc1ccc(-c2cc(NC(=O)Nc3c(C)cc(C)cc3C)c(C(=O)NC3(C(=O)O)CCCC3)s2)cc1` [Example 451, 1-({[5-[4-(methyloxy)phenyl]-3-({[(2,4,6-trimethylphenyl)amino]carbonyl}amino)-2-thienyl]carbonyl}amino)cyclopentanecarboxylic acid] was tested, and the IC50 was 0.047 µM.
With `COc1ccc(-c2cc(NC(=O)Nc3c(C)cc(C)cc3C)c(C(=O)NC3(C(=O)O)CCCCC3)s2)cc1` [Example 452, 1-({[5-[4-(methyloxy)phenyl]-3-({[(2,4,6-trimethylphenyl)amino]carbonyl}amino)-2-thienyl]carbonyl}amino)cyclohexanecarboxylic acid] the IC50 was 0.003 µM.
Work on `COc1ccc(-c2cc(NC(=O)Nc3c(C)cc(C)cc3C)c(C(=O)NC3(C(=O)O)CCCCCC3)s2)cc1` [Example 453, 1-({[5-[4-(methyloxy)phenyl]-3-({[(2,4,6-trimethylphenyl)amino]carbonyl}amino)-2-thienyl]carbonyl}amino)cycloheptanecarboxylic acid] yielded an IC50 of 0.004 µM.
`COc1ccc(-c2cc(NC(=O)Nc3c(C)cc(C)cc3C)c(C(=O)NC3(C(=O)O)CCCCCCC3)s2)cc1` [Example 454, 1-({[5-[4-(methyloxy)phenyl]-3-({[(2,4,6-trimethylphenyl)amino]carbonyl}amino)-2-thienyl]carbonyl}amino)cyclooctanecarboxylic acid] was tested, and the IC50 was 0.001 µM.
In the case of `O=C(Nc1cc2ccccc2cc1C(=O)N[C@H](C(=O)O)C1CCCCC1)Nc1c(Cl)cc(F)cc1Cl` [Example 455, (2S)-cyclohexyl({[3-({[(2,6-dichloro-4-fluorophenyl)amino]carbonyl}amino)-2-naphthalenyl]carbonyl}amino)ethanoic acid], the IC50 is reported as 0.086 µM.
Compound `C[C@](NC(=O)c1cc2ccccc2cc1NC(=O)Nc1c(Cl)cc(Cl)cc1Cl)(C(=O)O)C1CCCCC1` [Example 456, 2-cyclohexyl-N-{[3-({[(2,4,6-trichlorophenyl)amino]carbonyl}amino)-2-naphthalenyl]carbonyl}-L-alanine] has an IC50 of 0.23 µM.
`Cc1cc(C)c(CC(=O)Nc2cc3ccccc3cc2C(=O)N[C@H](C(=O)O)C2CCCCC2)c(C)c1` [Example 457, (2S)-cyclohexyl{[(3-{[(2,4,6-trimethylphenyl)acetyl]amino}-2-naphthalenyl)carbonyl]amino}ethanoic acid] showed an IC50 of 0.064 µM.
Work on `Cc1cc(Br)cc(C)c1NC(=O)Nc1cc2ccccc2cc1C(=O)N[C@H](C(=O)O)C1CCCCC1` [Example 458, (2S)-({[3-({[(4-bromo-2,6-dimethylphenyl)amino]carbonyl}amino)-2-naphthalenyl]carbonyl}amino)(cyclohexyl)ethanoic acid] yielded an IC50 of 0.22 µM.
`O=C(Cc1c(Cl)ccc(Cl)c1Cl)Nc1cc2ccccc2cc1C(=O)N[C@H](C(=O)O)C1CCCCC1` [Example 459, (2S)-cyclohexyl{[(3-{[(2,3,6-trichlorophenyl)acetyl]amino}-2-naphthalenyl)carbonyl]amino}ethanoic acid] showed an IC50 of 0.18 µM.
`CCc1cc(C)c(NC(=O)Nc2cc3ccccc3cc2C(=O)N[C@H](C(=O)O)C2CCCCC2)c(C)c1` [Example 460, (2S)-cyclohexyl({[3-({[(4-ethyl-2,6-dimethylphenyl)amino]carbonyl}amino)-2-naphthalenyl]carbonyl}amino)ethanoic acid] was tested, and the IC50 was 0.002 µM.
`C[C@](NC(=O)c1cc2ccccc2cc1NC(=O)Nc1c(Cl)cc(OC(F)(F)F)cc1Cl)(C(=O)O)C1CCCCC1` [Example 465, 2-cyclohexyl-N-[(3-{[({2,6-dichloro-4-[(trifluoromethyl)oxy]phenyl}amino)carbonyl]amino}-2-naphthalenyl)carbonyl]-L-alanine] showed an IC50 of 0.006 µM.
